Patent publication US20180265515A1 (Genentech, Inc., priority 2015, published 2018)

Columns and labels:
[1] = target: T1, isolated recombinant JAK2 kinase domain (Homo sapiens, UniProt O60674); assay: JAK2 enzyme assay (Caliper LabChip, Ki); format: biochemical; conditions: 25 μM ATP
T1 construct: The activity of the isolated recombinant JAK1 and JAK2 kinase domain was measured
How it was run: (§1)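 Values are Ki estimates derived with the Morrison tight-binding equation modified for competition with ATP. Activity of the recombinant kinase domains was measured as peptide phosphorylation on a Caliper LabChip after a 30-minute, 22° C reaction terminated by EDTA.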

[2] = target: T2, isolated recombinant JAK1 kinase domain (Homo sapiens, UniProt P23458); assay: JAK1 enzyme assay (Caliper LabChip, Ki); format: biochemical; conditions: recombinant JAK1 kinase domain, 25 μM ATP
T2 construct: The activity of the isolated recombinant JAK1 and JAK2 kinase domain was measured
T2 sequence (P23458 875-1153 limits assumed): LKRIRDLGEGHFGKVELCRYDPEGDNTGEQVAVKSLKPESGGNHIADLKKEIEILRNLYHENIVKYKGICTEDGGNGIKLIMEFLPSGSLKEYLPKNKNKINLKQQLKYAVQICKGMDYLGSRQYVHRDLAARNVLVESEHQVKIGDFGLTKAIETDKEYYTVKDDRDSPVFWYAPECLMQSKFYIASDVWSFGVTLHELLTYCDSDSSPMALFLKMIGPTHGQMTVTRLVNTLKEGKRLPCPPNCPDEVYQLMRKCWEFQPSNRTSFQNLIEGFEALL
How it was run: as §1

[3] = system: JAK1-dependent STAT6 phosphorylation downstream of IL-13 stimulation in BEAS-2B human bronchial epithelial cells; assay: JAK1 pathway assay in BEAS-2B cells (IL-13 stimulated STAT6 phosphorylation, MSD); format: cell-based; conditions: read-out: P-STAT6 BEAS2B + IL13 IC50
How it was run: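 BEAS-2B human bronchial epithelial cells, plated the day before in complete growth medium, were preincubated with compound for 1 hr at 37° C (0.2% DMSO final), then stimulated with IL-13 at its EC90 for 15 min. STAT6 phosphorylation in lysates was read by MSD; EC50 was taken as 50% inhibition versus DMSO control.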

T1 sequence (O60674 849-1124 limits assumed): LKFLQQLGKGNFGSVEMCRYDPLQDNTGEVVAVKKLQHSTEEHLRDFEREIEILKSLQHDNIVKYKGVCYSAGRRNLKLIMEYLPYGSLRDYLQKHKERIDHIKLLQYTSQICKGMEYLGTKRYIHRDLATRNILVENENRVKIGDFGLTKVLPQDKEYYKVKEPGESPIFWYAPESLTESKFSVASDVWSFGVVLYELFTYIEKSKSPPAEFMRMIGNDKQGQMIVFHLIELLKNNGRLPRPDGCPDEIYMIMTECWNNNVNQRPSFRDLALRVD

Ki [1] [nM]	Ki [2] [nM]	SMILES	IC50 [3] [nM]
0.097	0.16	Cn1cc(NC(=O)c2cnn3cccnc23)c(-c2cc(SC(CF)CF)ccc2OC(F)F)n1 [Example 159, N-[3-[2-(difluoromethoxy)-5-[(1,3-difluoropropan-2-yl)sulfanyl]phenyl]-1-methyl-1H-pyrazol-4-yl]pyrazolo[1,5-a]pyrimidine-3-carboxamide]	3.9
0.94	0.43	O=C(Nc1cn(CC(=O)N2CCN(CCN3CCOCC3)CC2)nc1-c1cc(SC2CC2)ccc1OC(F)F)c1cnn2cccnc12 [Example 163, N-[3-[5-(cyclopropylsulfanyl)-2-(difluoromethoxy)phenyl]-1-(2-[4-[2-(morpholin-4-yl)ethyl]piperazin-1-yl]-2-oxoethyl)-1H-pyrazol-4-yl]pyrazolo[1,5-a]pyrimidine-3-carboxamide]	24
1.5	0.55	CN1CCN(C2CCN(C(=O)Cn3cc(NC(=O)c4cnn5cccnc45)c(-c4cc(SC5CC5)ccc4OC(F)F)n3)CC2)CC1 [Example 164, N-[3-[5-cyclopropylsulfanyl-2-(difluoromethoxy)phenyl]-1-[2-[4-(4-methylpiperazin-1-yl)-1-piperidyl]-2-oxo-ethyl]pyrazol-4-yl]pyrazolo[1,5-a]pyrimidine-3-carboxamide]	32
0.67	0.28	CC(C)(C#N)CNC1CCN(C(=O)Cn2cc(NC(=O)c3cnn4cccnc34)c(-c3cc(SC4CC4)ccc3OC(F)F)n2)CC1 [Example 167, N-[1-(2-[4-[(2-cyano-2,2-dimethylethyl)amino]piperidin-1-yl]-2-oxoethyl)-3-[5-(cyclopropylsulfanyl)-2-(difluoromethoxy)phenyl]-1H-pyrazol-4-yl]pyrazolo[1,5-a]pyrimidine-3-carboxamide]	11
0.46	0.29	O=C(Nc1cn(CC(=O)N2CCN(C3CCOCC3)CC2)nc1-c1cc(SC2CC2)ccc1OC(F)F)c1cnn2cccnc12 [Example 168, N-[3-[5-cyclopropylsulfanyl-2-(difluoromethoxy)phenyl]-1-[2-oxo-2-(4-tetrahydropyran-4-ylpiperazin-1-yl)ethyl]pyrazol-4-yl]pyrazolo[1,5-a]pyrimidine-3-carboxamide]	14
0.8	0.43	CC(F)(F)CNC1CCN(C(=O)Cn2cc(NC(=O)c3cnn4cccnc34)c(-c3cc(SC4CC4)ccc3OC(F)F)n2)CC1 [Example 169, N-[3-[5-cyclopropylsulfanyl-2-(difluoromethoxy)phenyl]-1-[2-[4-(2,2-difluoropropylamino)-1-piperidyl]-2-oxo-ethyl]pyrazol-4-yl]pyrazolo[1,5-a]pyrimidine-3-carboxamide]	20
0.91	0.45	CC(=O)N1CCN(CC2CCN(C(=O)Cn3cc(NC(=O)c4cnn5cccnc45)c(-c4cc(SC5CC5)ccc4OC(F)F)n3)CC2)CC1 [Example 172, N-[1-[2-[4-[(4-acetylpiperazin-1-yl)methyl]-1-piperidyl]-2-oxo-ethyl]-3-[5-cyclopropylsulfanyl-2-(difluoromethoxy)phenyl]pyrazol-4-yl]pyrazolo[1,5-a]pyrimidine-3-carboxamide]	32
0.83	0.33	COC(=O)N1CCN(CC2CCN(C(=O)Cn3cc(NC(=O)c4cnn5cccnc45)c(-c4cc(SC5CC5)ccc4OC(F)F)n3)CC2)CC1 [Example 173, methyl 4-[[1-[2-[3-[5-cyclopropylsulfanyl-2-(difluoromethoxy)phenyl]-4-(pyrazolo[1,5-a]pyrimidine-3-carbonylamino)pyrazol-1-yl]acetyl]-4-piperidyl]methyl]piperazine-1-carboxylate]	17
0.11	0.23	O=C(Nc1c[nH]nc1-c1cc(SC2COC2)ccc1OC(F)F)c1cnn2cccnc12 [Example 175, N-[3-[2-(difluoromethoxy)-5-(oxetan-3-ylsulfanyl)phenyl]-1H-pyrazol-4-yl]pyrazolo[1,5-a]pyrimidine-3-carboxamide]	9.5
1.4	0.38	CN1CCC[C@@H]1Cn1cc(NC(=O)c2cnn3cccnc23)c(-c2cc(SC3COC3)ccc2OC(F)F)n1 [Example 176, N-[3-[2-(difluoromethoxy)-5-(oxetan-3-ylsulfanyl)phenyl]-1-[[(2R)-1-methylpyrrolidin-2-yl]methyl]pyrazol-4-yl]pyrazolo[1,5-a]pyrimidine-3-carboxamide]	28
0.64	0.36	CNCCn1cc(NC(=O)c2cnn3cccnc23)c(-c2cc(SC3COC3)ccc2OC(F)F)n1 [Example 178, N-[3-[2-(difluoromethoxy)-5-(oxetan-3-ylsulfanyl)phenyl]-1-[2-(methylamino)ethyl]pyrazol-4-yl]pyrazolo[1,5-a]pyrimidine-3-carboxamide]	9
0.59	0.74	O=C(Nc1cn(CCN[C@H]2C[C@H](O)C2)nc1-c1cc(SC2COC2)ccc1OC(F)F)c1cnn2cccnc12 [Example 179, N-[3-[2-(difluoromethoxy)-5-(oxetan-3-ylsulfanyl)phenyl]-1-(2-[[trans-3-hydroxycyclobutyl]amino]ethyl)-1H-pyrazol-4-yl]pyrazolo[1,5-a]pyrimidine-3-carboxamide]	26

Continued, compound first:

SMILES	Ki [1] [nM]	Ki [2] [nM]	IC50 [3] [nM]
O=C(Nc1c[nH]nc1-c1cc(SC2CC2)ccc1OC(F)F)c1cnn2cccnc12 [Example 160, N-[3-[5-(cyclopropylsulfanyl)-2-(difluoromethoxy)phenyl]-1H-pyrazol-4-yl]pyrazolo[1,5-a]pyrimidine-3-carboxamide]	0.056	0.098	7.3
O=C(Nc1cn(CC(=O)N2CCC(N3CCOCC3)CC2)nc1-c1cc(SC2CC2)ccc1OC(F)F)c1cnn2cccnc12 [Example 161, N-[3-[5-cyclopropylsulfanyl-2-(difluoromethoxy)phenyl]-1-[2-(4-morpholino-1-piperidyl)-2-oxo-ethyl]pyrazol-4-yl]pyrazolo[1,5-a]pyrimidine-3-carboxamide]	0.64	0.3	16
O=C(Nc1cn(CC(=O)N2CCC(CN3CCOCC3)CC2)nc1-c1cc(SC2CC2)ccc1OC(F)F)c1cnn2cccnc12 [Example 162, N-[3-[5-cyclopropylsulfanyl-2-(difluoromethoxy)phenyl]-1-[2-[4-(morpholinomethyl)-1-piperidyl]-2-oxo-ethyl]pyrazol-4-yl]pyrazolo[1,5-a]pyrimidine-3-carboxamide]	0.98	0.42	15
O=C(Nc1cn(CC(=O)N2CCN(CC3CCOCC3)CC2)nc1-c1cc(SC2CC2)ccc1OC(F)F)c1cnn2cccnc12 [Example 165, N-[3-[5-cyclopropylsulfanyl-2-(difluoromethoxy)phenyl]-1-[2-oxo-2-[4-(tetrahydropyran-4-ylmethyl)piperazin-1-yl]ethyl]pyrazol-4-yl]pyrazolo[1,5-a]pyrimidine-3-carboxamide]	0.67	0.4	20
N#CC1(CNC2CCN(C(=O)Cn3cc(NC(=O)c4cnn5cccnc45)c(-c4cc(SC5CC5)ccc4OC(F)F)n3)CC2)CC1 [Example 166, N-[1-[2-[4-[(1-cyanocyclopropyl)methylamino]-1-piperidyl]-2-oxo-ethyl]-3-[5-cyclopropylsulfanyl-2-(difluoromethoxy)phenyl]pyraxol-4-yl]pyrazolo[1,5-a]pyrimidine-3-carboxamide]	0.72	0.29	17
CN(C)C(=O)CN1CCN(CC2CCN(C(=O)Cn3cc(NC(=O)c4cnn5cccnc45)c(-c4cc(SC5CC5)ccc4OC(F)F)n3)CC2)CC1 [Example 170, N-[3-[5-cyclopropylsulfanyl-2-(difluoromethoxy)phenyl]-1-[2-[4-[[4-[2-(dimethylamino)-2-oxo-ethyl]piperazin-1-yl]methyl]-1-piperidyl]-2-oxo-ethyl]pyrazol-4-yl]pyrazolo[1,5-a]pyrimidine-3-carboxamide]	0.78	0.39	25
CN(C1CCN(C(=O)Cn2cc(NC(=O)c3cnn4cccnc34)c(-c3cc(SC4CC4)ccc3OC(F)F)n2)CC1)C1COC1 [Example 171, N-[3-[5-cyclopropylsulfanyl-2-(difluoromethoxy)phenyl]-1-[2-[4-[methyl(oxetan-3-yl)amino]-1-piperidyl]-2-oxo-ethyl]pyrazol-4-yl]pyraxolo[1,5-a]pyrimidine-3-carboxamide]	0.78	0.43	22
O=C(Nc1cn(Cc2cn(C3CCN(C4COC4)CC3)nn2)nc1-c1cc(SC2CC2)ccc1OC(F)F)c1cnn2cccnc12 [Example 174, N-[3-[5-cyclopropylsulfanyl-2-(difluoromethoxy)phenyl]-1-[[1-[1-(oxetan-3-yl)-4-piperidyl]triazol-4-yl]methyl]pyrazol-4-yl]pyrazolo[1,5-a]pyrimidine-3-carboxamide]	0.21	0.27	11
O=C(Nc1cn(CCN[C@@H]2CCOC2)nc1-c1cc(SC2COC2)ccc1OC(F)F)c1cnn2cccnc12 [Example 177, N-[3-[2-(difluoromethoxy)-5-(oxetan-3-ylsulfanyl)phenyl]-1-[2-[[(3R)-tetrahydrofuran-3-yl]amino]ethyl]pyrazol-4-yl]pyrazolo[1,5-a]pyrimidine-3-carboxamide]	0.48	0.81	18
